Measurements as given in US10174015B2, “Substituted heterocyclic derivative, preparation method and use thereof” (Xiamen University, priority 2014, dated 2019).

Tested on: headache caused by nitroglycerin
Experiment: Nitroglycerin-induced headache rat model
Format: in vivo, Wistar rats
Conditions: rats, 10 mg/kg i.p. 1 h before nitroglycerin (FIG. 5)
Protocol: In the Experimental example, compounds to be evaluated or compounds to be tested or test compounds used are the Compounds 1-46 prepared in the Examples according to the invention. In the Experimental example, all the agents for injection, including compounds to be evaluated or compounds to be tested or test compounds, and positive control drug, were dissolved in a mixed solvent of PEG400:Tween 80:normal saline (at a volume ratio of 5:5:90), at a concentration of 5 mg/mL.
Nitroglycerin-induced headache rat model was a common model for studying inflammatory pain medically. The model was used in the invention to evaluate the therapeutic effects of the compounds on headache. The model can represent mixed pain including, but not only limited to: migraine, cluster headache, tension headache syndrome, prosopodynia, lumbodynia, shoulder pain, burning mouth syndrome, and complex regional pain syndrome.
Experimental Wistar rats with a body weight of about 250 g for each (purchased from Shanghai SLAC Laboratory Animal Co., Ltd) were in an experimental environment with free access to food and water for 1 week. The rats were fasted for 24 h before administration. The compound to be evaluated (10 mg/kg) was intraperitoneally injected to the rat at 1 h before the administration of nitroglycerin, wherein the positive control drug was indomethacin and the blank control was normal saline. Nitroglycerin (10 mg/kg, nitroglycerin dissolved in normal saline, at a concentration of 5%) was injected at epidermis of the rat neck, and the rats were then placed in the observation cage. A video camera was used to record the behavior of the rats in the following 60 min. Pain-related behavior was analyzed statistically based on the times that the rat scratched its head in said period.

| Compound | effect of inhibiting nitroglycerin-induced headache |
| --- | --- |
| O=C(CCCCCc1cccc(Cl)c1)N1CCOC1=O [Compound 9, 3-Chlorophenylhexanoyl Oxazolidinone] | significant effects of inhibiting nitroglycerin-induced headache in rats |
| O=C(CCCCCc1ccccc1)N1CCOC1=O [Compound 2, Phenylhexanoyl Oxazolidinone] | significant effects of inhibiting nitroglycerin-induced headache in rats |
